For experiment [1], the target named is ER (endogenous, MCF7 cells) (Homo sapiens (Human), UniProt P03372). Put plainly: ER transcription assay (MCF7 cells), ERE-luciferase reporter. It is filed as cell-based. The note with it: inflection point of the inhibition of transcription in MCF7 cells; 0.1 nM estradiol, 24 hours; read-out: MCF7 IC50. An excerpt:
ER Transcription Assay (MCF7 Cells)
The ER transcription assay is a reporter assay that is based on the ability of ER to induce transcription from a luciferase reporter gene containing estrogen response elements (EREs) in the promoter/enhancer region. When the reporter gene is transfected in MCF7 cells (containing endogenous ER), transcription is reflected by the level of luciferase expression.
A day before transfection, cells are split into a T75 flask at a cell density of 300,000 cells/mL (10 mL total) and allowed to attach overnight in a humidified CO2 incubator at 37° C.
Approximately 20 ug DNA is mixed in OptiMEM (Invitrogen) to a total volume of 650 μL. Following incubation, the OptiMEM-DNA mixture is added to the OptiMEM-Lipofectin mix and incubated for 15 minutes at 37° C. The DNA-Lipofectin mixture is then added directly to the T75 flask and the flask is returned to the incubator.
Normally, DMSO (used as a vehicle) is included to achieve a final concentration of 0.1% when added to the cells. Transfected cells are trypsinized, resuspended in DMEM/F12/10% charcoal-stripped serum and added to the 96-well plate at 25,000 cells/well in 90 μL of media. The plate is then returned to the incubator for 24 hours.
After incubation with compounds for 24 hours, Firefly and Renilla luciferase activities are measured to determine ER transcriptional activity. Media is removed from 96-well plates by decanting and blotting on paper towels.
One second total read time after a one second delay.
One second total read time after one second delay. If Firefly luciferase signal is high, Renilla assay must be done an hour after the Firefly assay due to incomplete squelching of Firefly signal.
(§1) The column titled MCF7 IC50 reports the inflection point of the inhibition of transcription in MCF7 cells as described above. Percentage ERα remaining reports the remaining ERα protein measured at 10 μM concentration of the ligand as described above. The column ERα IC50 reports the inflection point of the degradation in response to the ligand concentration.

For the next experiment, the target named is ERα (Homo sapiens (Human), UniProt P03372). Put plainly: ERα degradation (MCF7 cells), in-cell Western. It is filed as cell-based. The conditions noted are these: MCF7 cells; for IC50: inflection point of the degradation in response to ligand concentration; for % ERα remaining: remaining ERα protein at 10 μM ligand, relative to DMSO control. Here is the method:
ERα Degradation (MCF7 Cells)
as §1

From patent US10058534B2, “Benzothiophene derivatives and compositions thereof as selective estrogen receptor degraders” (NOVARTIS AG, priority 2013, dated 2018) come the findings set out here.

Sequence of ER (endogenous, MCF7 cells) (P03372 whole entry): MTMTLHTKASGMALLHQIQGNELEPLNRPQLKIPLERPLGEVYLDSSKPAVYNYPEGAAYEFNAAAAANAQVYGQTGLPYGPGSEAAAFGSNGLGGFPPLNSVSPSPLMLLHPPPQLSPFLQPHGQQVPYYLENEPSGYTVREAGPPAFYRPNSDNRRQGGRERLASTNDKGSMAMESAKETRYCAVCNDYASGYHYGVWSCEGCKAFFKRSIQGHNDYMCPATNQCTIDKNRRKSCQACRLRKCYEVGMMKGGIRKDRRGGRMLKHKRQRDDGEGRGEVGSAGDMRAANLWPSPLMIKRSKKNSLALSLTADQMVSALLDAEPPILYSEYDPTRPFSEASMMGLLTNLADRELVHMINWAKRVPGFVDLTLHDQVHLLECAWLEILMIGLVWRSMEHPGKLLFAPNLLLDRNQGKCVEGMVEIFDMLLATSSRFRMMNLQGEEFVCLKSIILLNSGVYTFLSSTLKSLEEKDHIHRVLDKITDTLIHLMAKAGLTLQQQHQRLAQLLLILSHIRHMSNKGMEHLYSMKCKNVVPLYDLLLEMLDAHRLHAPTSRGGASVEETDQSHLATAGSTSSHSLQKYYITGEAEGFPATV
Sequence of ERα (P03372 whole entry): as above

The term IC50 denotes the concentration that gives 50% inhibition. As to `O=C(O)/C=C/c1ccc(Oc2c(-c3ccccc3CN3CCC3)sc3cc(O)ccc23)cc1` [Example 97, (E)-3-(4-((2-(2-(azetidin-1-ylmethyl)phenyl)-6-hydroxybenzo[b]thiophen-3-yl)oxy)phenyl)acrylic acid], in experiment [1], the IC50 amounted to 292 nM. On ERα, the IC50 is 25 nM and the “% ERα remaining” value worked out at 18%.

Take `COCCC(=O)Oc1ccc2c(Oc3ccc(/C=C/C(=O)O)cc3)c(-c3ccccc3C(C)C)sc2c1` [Example 83, (E)-3-(4-((2-(2-isopropylphenyl)-6-((3-methoxypropanoyl)oxy)benzo[b]thiophen-3-yl)oxy)phenyl)acrylic acid]: in experiment [1], the IC50 was 15 nM. For the same molecule, the “% ERα remaining” value at ERα came to 13%.

Take `CC(F)(F)c1ccccc1-c1sc2cc(O)ccc2c1Oc1ccc(/C=C/C(=O)O)cc1` [Example 122, (E)-3-(4-((2-(2-(1,1-difluoroethyl)phenyl)-6-hydroxybenzo[b]thiophen-3-yl)oxy)phenyl)acrylic acid]: in experiment [1], the IC50 was determined as 11 nM. In addition, on ERα, half-maximal inhibition (IC50) required 0.2 nM and the “% ERα remaining” value turned out to be 15%.

For `COc1ccc(-c2sc3cc(O)ccc3c2Oc2ccc(/C=C/C(=O)O)cc2)c(C(F)(F)F)n1` [Example 91, (E)-3-(4-((6-hydroxy-2-(6-methoxy-2-(trifluoromethyl)pyridin-3-yl)benzo[b]thiophen-3-yl)oxy)phenyl)acrylic acid], the IC50 in experiment [1] was found to be 23 nM. Further, the “% ERα remaining” value on ERα was found to be 16%.

Consider `CCCn1cnc(/C=C/c2ccc(Oc3c(-c4ccc(O)cc4)sc4cc(O)ccc34)cc2)c1` [Example 74, (E)-2-(4-hydroxyphenyl)-3-(4-(2-(1-propyl-1H-imidazol-4-yl)vinyl)phenoxy)benzo [b]thiophen-6-ol], for which the half-maximal inhibitory concentration (IC50) in experiment [1] was determined as 58 nM. Also, on ERα, the IC50 was determined as 10 nM and the “% ERα remaining” value worked out at 32%.

For the molecule `CCOC(=O)/C=C/c1ccc(Oc2c(-c3ccccc3C(C)C)sc3cc(O)ccc23)cc1` [Example 137, (E)-ethyl 3-(4-((6-hydroxy-2-(2-isopropylphenyl)benzo [b]thiophen-3-yl)oxy)phenyl)acrylate], the IC50 in experiment [1] was 9 nM. Moreover, the “% ERα remaining” value at ERα is 15%.

Turning to `CC(C)OC(=O)/C=C/c1ccc(Oc2c(-c3ccccc3C(C)C)sc3cc(O)ccc23)cc1` [Example 81, (E)-isopropyl 3-(4-((6-hydroxy-2-(2-isopropylphenyl)benzo[b]thiophen-3-yl)oxy)phenyl)acrylate], the IC50 in experiment [1] worked out at 320 nM. Further, the “% ERα remaining” value at ERα is 29%.

As for `Oc1ccc(-c2sc3cc(O)ccc3c2Oc2ccc(/C=C/c3c[nH]cn3)cc2)cc1` [Example 72, (E)-3-(4-(2-(1H-imidazol-4-yl)vinyl)phenoxy)-2-(4-hydroxyphenyl)benzo[b]thiophen-6-ol], the IC50 in experiment [1] worked out at 53 nM. In addition, at ERα, 11 nM corresponded to half-maximal inhibition (IC50) and the “% ERα remaining” value is recorded as 39%.

As to `CC/C(=C\c1ccc(Oc2c(-c3ccccc3C(C)C)sc3cc(O)ccc23)cc1)C(=O)O` [Example 113, (E)-2-(4-((6-hydroxy-2-(2-isopropylphenyl)benzo [b]thiophen-3-yl)oxy)benzylidene) butanoic acid], the IC50 came to 62 nM in experiment [1] and 2.2 nM on ERα. For the same molecule, the “% ERα remaining” value at ERα amounted to 24%.

Consider `Cn1ccc2c(-c3sc4cc(O)ccc4c3Oc3ccc(/C=C/C(=O)O)cc3)cccc21` [Example 133, (E)-3-(4-((6-hydroxy-2-(1-methyl-1H-indol-4-yl)benzo[b]thiophen-3-yl)oxy)phenyl)acrylic acid], for which, in experiment [1], the IC50 came out at 898 nM. Besides, at ERα, the “% ERα remaining” value is 17%.

In the case of `CN(C)Cc1ccccc1-c1sc2cc(O)ccc2c1Oc1ccc(/C=C/C(=O)O)cc1` [Example 77, (E)-3-(4-((2-(2-((dimethylamino)methyl)phenyl)-6-hydroxybenzo[b]thiophen-3-yl)oxy)phenyl)acrylic acid], the IC50 in experiment [1] was 44 nM. Also, on ERα, the IC50 was 1.4 nM and the “% ERα remaining” value was found to be 15%.

On to `COc1ccc(-c2sc3cc(O)ccc3c2Oc2ccc(/C=C/C(=O)O)cc2)c(C)n1` [Example 129, (E)-3-(4-((6-hydroxy-2-(6-methoxy-2-methylpyridin-3-yl)benzo[b]thiophen-3-yl)oxy)phenyl)acrylic acid], for which, in experiment [1], the IC50 is 297 nM. In addition, the “% ERα remaining” value on ERα turned out to be 22%.

With `[C-]#[N+]c1ccccc1-c1sc2cc(O)ccc2c1Oc1ccc(/C=C/C(=O)O)cc1` [Example 24, (E)-3-(4-((6-hydroxy-2-(2-isocyanophenyl)-benzo[b]thiophen-3-yl)oxy)phenyl)acrylic acid], the IC50 in experiment [1] was determined as 2580 nM. In addition, on ERα, the IC50 came to 33 nM and the “% ERα remaining” value is reported as 22%.

Regarding `O=C(O)/C=C/c1ccc(Oc2c(-c3ccc(F)cc3CN3CCCC3=O)sc3cc(O)ccc23)cc1` [Example 99, (E)-3-(4-((2-(4-fluoro-2-((2-oxopyrrolidin-1-yl)methyl)phenyl)-6-hydroxybenzo[b]thiophen-3-yl)oxy)phenyl)acrylic acid], in experiment [1], the IC50 came to 544 nM. In addition, the “% ERα remaining” value on ERα came to 14%.

`CNC(=O)/C=C/c1ccc(Oc2c(-c3ccc(C(F)(F)F)cc3)sc3cc(O)ccc23)cc1` [Example 70, (E)-3-(4-((6-hydroxy-2-(4-(trifluoromethyl)phenyl)benzo[b]thiophen-3-yl)oxy)phenyl)-N-methylacrylamide]: in experiment [1], the 50% inhibitory concentration (IC50) amounted to 41 nM. Moreover, on ERα, the IC50 turned out to be 9 nM and the “% ERα remaining” value was 32%.

As for `COc1ccc(-c2sc3cc(O)ccc3c2Oc2ccc(/C=C/C(=O)O)cc2)c(C(C)C)c1` [Example 134, (E)-3-(4-((6-hydroxy-2-(2-isopropyl-4-methoxyphenyl)benzo [b]thiophen-3-yl)oxy)phenyl)acrylic acid], in experiment [1], the IC50 amounted to 380 nM. Moreover, on ERα, the IC50 worked out at 403 nM and the “% ERα remaining” value was 12%.

As for `Cc1occc1-c1sc2cc(O)ccc2c1Oc1ccc(/C=C/C(=O)O)cc1` [Example 131, (E)-3-(4-((6-hydroxy-2-(2-methylfuran-3-yl)benzo[b]thiophen-3-yl)oxy)phenyl)acrylic acid], the IC50 in experiment [1] stood at 815 nM. Besides, the “% ERα remaining” value at ERα is 12%.

For `Cn1cnc(/C=C/c2ccc(Oc3c(-c4ccc(O)cc4)sc4cc(O)ccc34)cc2)c1` [Example 73, (E)-2-(4-hydroxyphenyl)-3-(4-(2-(1-methyl-1H-imidazol-4-yl)vinyl)phenoxy)benzo[b]thiophen-6-ol], in experiment [1], the IC50 stood at 125 nM. Moreover, at ERα, 17 nM corresponded to half-maximal inhibition (IC50) and the “% ERα remaining” value amounted to 47%.

Turning to `O=C(O)/C=C/c1ccc(Oc2c(-c3ccccc3C(F)F)sc3cc(O)ccc23)cc1` [Example 79, (E)-3-(4-((2-(2-(difluoromethyl)phenyl)-6-hydroxybenzo [b]thiophen-3-yl)oxy)phenyl)acrylic acid], in experiment [1], the IC50 was 52 nM. In addition, on ERα, the IC50 was 4.2 nM and the “% ERα remaining” value stood at 17%.

On to `CCCc1nnc(/C=C/c2ccc(Oc3c(-c4ccccc4C(C)C)sc4cc(O)ccc34)cc2)o1` [Example 103, (E)-2-(2-isopropylphenyl)-3-(4-(2-(5-propyl-1,3,4-oxadiazol-2-yl)vinyl)phenoxy)benzo [b]thiophen-6-ol], for which the IC50 in experiment [1] is 12 nM. On ERα, it took 3.3 nM to reach half-maximal inhibition (IC50) and the “% ERα remaining” value was found to be 31%.

`CCC(C)c1ccccc1-c1sc2cc(O)ccc2c1Oc1ccc(/C=C/C(=O)O)cc1` (centres unmarked) [Example 86, (E)-3-(4-((2-(2-(sec-butyl)phenyl)-6-hydroxybenzo[b]thiophen-3-yl)oxy)phenyl)acrylic acid]: the IC50 stood at 7 nM in experiment [1] and 0.2 nM against ERα. On ERα, the “% ERα remaining” value is reported as 12%.

With `O=C(O)/C=C/c1ccc(Oc2c(-c3ccccc3C3COC3)sc3cc(O)ccc23)cc1` [Example 123, (E)-3-(4-((6-hydroxy-2-(2-(oxetan-3-yl)phenyl)benzo[b]thiophen-3-yl)oxy)phenyl)acrylic acid], in experiment [1], the IC50 is 83 nM. Also, at ERα, the IC50 was determined as 1.1 nM and the “% ERα remaining” value is 15%.

Take `CCC(=O)Oc1ccc2c(Oc3ccc(/C=C/C(=O)O)cc3)c(-c3ccccc3C(C)C)sc2c1` [Example 136, (E)-3-(4-((2-(2-isopropylphenyl)-6-(propionyloxy)benzo[b]thiophen-3-yl)oxy)phenyl)acrylic acid]: the IC50 in experiment [1] was found to be 5.1 nM. In addition, the “% ERα remaining” value on ERα is 11%.

Turning to `COC(=O)/C=C/c1ccc(Oc2c(-c3ccccc3)sc3cc(O)ccc23)cc1` [Example 44, (E)-methyl 3-(4-((6-hydroxy-2-phenylbenzo[b]thiophen-3-yl)oxy)phenyl)-acrylate], the IC50 in experiment [1] came out at 10000 nM. Further, the “% ERα remaining” value at ERα is recorded as 25%.
